Experimental data: the supplement of paper PMC10307832

Key:
Assay in all cases: relative viability (nuclei count vs DMSO), 5 days (fraction); higher = more cells survive
Bosutinib + OSI-027 = compound: COc1cc(Nc2c(C#N)cnc3cc(OCCCN4CCN(C)CC4)c(OC)cc23)c(Cl)cc1Cl [Bosutinib] + COc1cccc2cc(-c3nc([C@H]4CC[C@H](C(=O)O)CC4)n4ncnc(N)c34)[nH]c12 [OSI-027] (partner 0.5 µM)
Method in brief: (§1)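 Relative viability equals treated-well nuclei counts divided by vehicle-well nuclei counts. Counts came from 4× images of lung cancer cell lines grown in 1536-well plates for 5 days after pin-tool dosing on the day after seeding. Dosing used one drug alone or a fixed anchor-drug dose plus five library-drug doses (not always all listed) in √10 steps, and values are medians of duplicate plates.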

Bosutinib + Bortezomib = compound: COc1cc(Nc2c(C#N)cnc3cc(OCCCN4CCN(C)CC4)c(OC)cc23)c(Cl)cc1Cl [Bosutinib] + CC(C)C[C@H](NC(=O)[C@H](Cc1ccccc1)NC(=O)c1cnccn1)B(O)O [Bortezomib] (partner 0.002 µM)
Method in brief: as §1

Bosutinib + Palbociclib = compound: COc1cc(Nc2c(C#N)cnc3cc(OCCCN4CCN(C)CC4)c(OC)cc23)c(Cl)cc1Cl [Bosutinib] + CC(=O)c1c(C)c2cnc(Nc3ccc(N4CCNCC4)cn3)nc2n(C2CCCC2)c1=O [Palbociclib] (partner 0.5 µM)
Method in brief: as §1

Bosutinib + Tozasertib = compound: COc1cc(Nc2c(C#N)cnc3cc(OCCCN4CCN(C)CC4)c(OC)cc23)c(Cl)cc1Cl [Bosutinib] + Cc1cc(Nc2cc(N3CCN(C)CC3)nc(Sc3ccc(NC(=O)C4CC4)cc3)n2)n[nH]1 [Tozasertib] (partner 0.1 µM)
Method in brief: as §1

Bosutinib + Pemetrexed = compound: COc1cc(Nc2c(C#N)cnc3cc(OCCCN4CCN(C)CC4)c(OC)cc23)c(Cl)cc1Cl [Bosutinib] + Nc1nc2[nH]cc(CCc3ccc(C(=O)N[C@@H](CCC(=O)O)C(=O)O)cc3)c2c(=O)[nH]1 [Pemetrexed] (partner 0.2 µM)
Method in brief: as §1

| Cell Line | relative viability (Bosutinib + OSI-027; first compound 0.01 µM) | relative viability (Bosutinib + OSI-027; first compound 0.03162 µM) | relative viability (Bosutinib + OSI-027; first compound 0.1 µM) | relative viability (Bosutinib + OSI-027; first compound 1 µM) | relative viability (Bosutinib + Bortezomib; first compound 0.01 µM) | relative viability (Bosutinib + Bortezomib; first compound 0.03162 µM) | relative viability (Bosutinib + Bortezomib; first compound 0.1 µM) | relative viability (Bosutinib + Bortezomib; first compound 1 µM) | relative viability (Bosutinib + Palbociclib; first compound 0.01 µM) | relative viability (Bosutinib + Palbociclib; first compound 0.03162 µM) | relative viability (Bosutinib + Palbociclib; first compound 0.1 µM) | relative viability (Bosutinib + Palbociclib; first compound 1 µM) | relative viability (Bosutinib + Tozasertib; first compound 0.01 µM) | relative viability (Bosutinib + Tozasertib; first compound 0.03162 µM) | relative viability (Bosutinib + Tozasertib; first compound 0.1 µM) | relative viability (Bosutinib + Tozasertib; first compound 1 µM) | relative viability (Bosutinib + Pemetrexed; first compound 0.01 µM) | relative viability (Bosutinib + Pemetrexed; first compound 0.03162 µM) | relative viability (Bosutinib + Pemetrexed; first compound 0.1 µM) | relative viability (Bosutinib + Pemetrexed; first compound 1 µM) |
| --- | --- | --- | --- | --- | --- | --- | --- | --- | --- | --- | --- | --- | --- | --- | --- | --- | --- | --- | --- | --- |
| PC-3 [JPC-3] | 0.812 | 0.685 | 0.745 | 0.54 | 0.8 | 0.773 | 0.765 | 0.77 | 0.506 | 0.543 | 0.542 | 0.516 | 0.856 | 0.854 | 0.92 | 0.819 | 1.1 | 1.08 | 1.11 | 0.688 |
| COR-L23 | 0.754 | 0.732 | 0.75 | 0.778 | 1.07 | 1.03 | 1.01 | 1.01 | 0.275 | 0.366 | 0.22 | 0.322 | 0.195 | 0.236 | 0.194 | 0.198 | 0.2 | 0.205 | 0.224 | 0.218 |
| NCI-H1355 | 0.412 | 0.466 | 0.465 | 0.381 | 1.27 | 1.24 | 1.3 | 1.21 | 0.415 | 0.396 | 0.386 | 0.372 | 0.549 | 0.603 | 0.524 | 0.475 | 1.05 | 0.975 | 1.06 | 1.05 |
| NCI-H460 | 0.803 | 0.631 | 0.7 | 0.603 | 1.17 | 1.04 | 1.01 | 0.91 | 0.165 | 0.173 | 0.148 | 0.0817 | 0.555 | 0.545 | 0.479 | 0.112 | 0.0612 | 0.0671 | 0.0657 | 0.073 |
| NCI-H1993 | 0.54 | 0.541 | 0.539 | 0.469 | 1.11 | 1.26 | 1.08 | 0.949 | 0.67 | 0.783 | 0.718 | 0.619 | 0.549 | 0.538 | 0.564 | 0.496 | 0.506 | 0.663 | 0.611 | 0.686 |
| ChaGo-K-1 | 0.568 | 0.501 | 0.576 | 0.647 | 0.922 | 1.12 | 1.12 | 1.37 | 0.918 | 0.939 | 0.972 | 0.881 | 0.22 | 0.254 | 0.224 | 0.213 | 0.244 | 0.26 | 0.249 | 0.265 |
| HCC-15 | 0.736 | 0.622 | 0.648 | 0.734 | 1.05 | 1.06 | 1.08 | 0.915 | 0.763 | 0.71 | 0.699 | 0.63 | 0.474 | 0.418 | 0.361 | 0.328 | 0.227 | 0.244 | 0.226 | 0.221 |
| NCI-H23 | 0.583 | 0.605 | 0.601 | 0.533 | 1 | 1.21 | 1.04 | 1.05 | 0.515 | 0.476 | 0.464 | 0.591 | 0.368 | 0.345 | 0.404 | 0.364 | 0.673 | 0.644 | 0.732 | 0.609 |
| NCI-H1666 | 0.773 | 0.811 | 0.821 | 1.03 | 0.794 | 0.74 | 0.977 | 0.746 | 0.663 | 0.664 | 0.634 | 0.674 | 0.57 | 0.626 | 0.629 | 0.662 | 0.827 | 0.888 | 0.833 | 0.912 |
| NCI-H2405 | 0.634 | 0.619 | 0.615 | 0.629 | 0.764 | 1.04 | 1.01 | 0.941 | 0.518 | 0.514 | 0.561 | 0.383 | 0.738 | 0.796 | 0.743 | 0.661 | 1.14 | 1.08 | 1.06 | 0.824 |
| NCI-H2009 | 0.681 | 0.799 | 0.746 | 0.522 | 1.17 | 1.08 | 1.1 | 0.795 | 0.246 | 0.302 | 0.195 | 0.147 | 0.732 | 0.82 | 0.73 | 0.572 | 0.944 | 1.06 | 1.17 | 0.946 |
| HCC-78 | 0.361 | 0.362 | 0.353 | 0.358 | 0.551 | 0.486 | 0.428 | 0.429 | 0.457 | 0.425 | 0.506 | 0.435 | 0.406 | 0.327 | 0.439 | 0.384 | 0.893 | 0.916 | 0.936 | 0.859 |
| HCC-366 | 0.981 | 0.898 | 0.821 | 0.405 | 1.11 | 1.01 | 1.06 | 0.989 | 0.423 | 0.365 | 0.375 | 0.247 | 0.161 | 0.142 | 0.104 | 0.0934 | 0.167 | 0.158 | 0.162 | 0.166 |
| NCI-H1651 | 0.678 | 0.793 | 0.709 | 0.657 | 0.914 | 0.942 | 0.994 | 0.978 | 0.506 | 0.535 | 0.507 | 0.534 | 0.586 | 0.742 | 0.612 | 0.624 | 0.529 | 0.678 | 0.643 | 0.569 |
